In patent US12076694B2, “Method of removing protein-bound substances by electrically conductive polymer” (Ming Chi University of Technology, priority 2019, dated 2024):

Columns and labels:
BSA = BSA (Bos taurus, UniProt P02769); test: Protein binding ratio by centrifugal ultrafiltration (30-kDa cutoff); details: 50 ppm toxin, BSA 4-40 g L^−1 in PBS buffer
Protocol: For the dialysis experiment of PBUT pre-bonded BSA solution, 50 ppm of targeted uremic toxins were mixed with various amount of BSA (4, 20, and 40 g L^−1) and shaken for 24 h at 37° C. Collected samples (1 mL) were purified through centrifugation (12,000×g, 25° C., 5 min) using a Vivaspin centrifuge (Vivaspin 2, 30 kDa cutoff, GE Healthcare); the PBUTs were separated into the bottom device, thereby collecting BSA proteins from the top device.
Because 4 g L^−1 BSA is closer to the normal content in mimic blood (1.5 g urea, 0.04 g L^−1 lysozyme, and 1 g L^−1 BSA), the BSA solution having the concentration of 4 g L^−1 was selected for the subsequent dialysis experiments.

[1] = comparison value for the anticoagulant; cited from earlier work

Chain of BSA (P02769 25-607): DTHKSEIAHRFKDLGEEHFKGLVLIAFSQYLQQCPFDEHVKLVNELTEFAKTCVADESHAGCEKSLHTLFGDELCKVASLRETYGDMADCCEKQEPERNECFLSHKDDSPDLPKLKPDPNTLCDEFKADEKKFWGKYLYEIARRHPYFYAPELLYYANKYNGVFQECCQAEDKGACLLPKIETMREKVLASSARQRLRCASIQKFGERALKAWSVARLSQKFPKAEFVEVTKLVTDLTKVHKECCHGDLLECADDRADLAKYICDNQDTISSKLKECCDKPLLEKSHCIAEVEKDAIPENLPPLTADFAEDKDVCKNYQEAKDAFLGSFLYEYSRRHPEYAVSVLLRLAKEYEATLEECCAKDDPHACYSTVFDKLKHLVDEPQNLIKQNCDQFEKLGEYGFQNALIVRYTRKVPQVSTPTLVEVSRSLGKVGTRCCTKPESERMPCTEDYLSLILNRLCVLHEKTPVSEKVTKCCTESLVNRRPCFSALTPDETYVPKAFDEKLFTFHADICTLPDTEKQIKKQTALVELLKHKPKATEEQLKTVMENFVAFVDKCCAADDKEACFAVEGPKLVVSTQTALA

CN1CC(=O)NC1=N [CRT, creatinine]
estimated protein-binding ratio (BSA): 1.0-2.1%

heparin
zeta potential [1]: −39 mV

Cc1ccc(O)cc1 [PC, p-cresol]
estimated protein-binding ratio (BSA): 89.4-94.4%

O=C(O)CNC(=O)c1ccccc1 [HA, hippuric acid]
estimated protein-binding ratio (BSA): 18.3-36.9%
